Assay: in vitro
Conditions: human, hela cells, % viability

Compound	viability at 28.5 h, 10 µM
O=C1CCCN1CCC(=O)N1CCCC1c1nc2ccccc2[nH]1 (centres unmarked) [CBK283981]	84.2%
Cc1nc2c(c(=O)[nH]1)CN(Cc1c(C)oc3ccccc13)CC2 [CBK283984]	94.8%
Cn1c(N2CCCC(C(=O)NCC3CC3)C2)nc2ccccc21 (centres unmarked) [CBK283987]	92.6%
O=c1[nH]nc2c3ccc(Cl)cc3ncn12 [CBK283988]	62.3%
Cc1nc2c(c(=O)[nH]1)CCN(Cc1cccc(Oc3ccccc3)c1)C2 [CBK283989]	81.9%
C=CCn1c(C)c(CN2CCc3c(nc(C)[nH]c3=O)C2)c2ccccc21 [CBK283990]	88.6%
Cc1nc2c(c(=O)[nH]1)CCN(Cc1c(C)oc3ccccc13)C2 [CBK283994]	87.8%
Cc1ccc2[nH]c(C3CCCCN3C(=O)c3cscn3)nc2c1 (centres unmarked) [CBK283999]	96.6%
Cc1ccc2[nH]c(C3CCCCN3C(=O)c3ccncc3)nc2c1 (centres unmarked) [CBK284000]	103%
c1coc(CN2CCC(c3ccc4c(c3)OCO4)CC2)c1 [CBK284001]	90.3%
CN(C)CCn1nc(-c2cccc(-n3cccc3)c2)oc1=O [CBK284002]	94.2%
O=C(CN1CCCC1)N1CCCC1c1nc2ccccc2[nH]1 (centres unmarked) [CBK284003]	89.4%
Cc1ccc(CN2Cc3cc4ccccc4nc3OC(C)C2=O)o1 (centres unmarked) [CBK284004]	90.6%
CC(C)N(C(=O)CN1C(=O)N2CCN=C2c2ccccc21)C(C)C [CBK284005]	87%
O=C(c1cccs1)N1CCCC1c1nc2ccccc2[nH]1 (centres unmarked) [CBK284006]	81.8%
COC1CCCC(C(=O)N2CCCC2c2nc3ccccc3[nH]2)C1 (centres unmarked) [CBK284007]	101%
CCn1nc2c3ccccc3nc(C3CC3)n2c1=O [CBK284008]	68.8%
Cc1nc2c(c(=O)[nH]1)CN(Cc1ccc(F)cc1)CC2 [CBK284009]	86.9%
CC(C)N(C(=O)N1CCC2(CC1)CC(=O)c1ccccc1O2)C(C)C [CBK284010]	90.7%
Cc1ccc(CCC(=O)N2CCCC2c2nc3ccccc3[nH]2)o1 (centres unmarked) [CBK284012]	93.3%
Cc1noc(C)c1C(=O)NC1(c2ccc(F)cc2)CCCC1 [CBK284013]	93.4%
Cn1c(C(=O)OCC(=O)NC(C)(C)C)cc2occc21 [CBK284015]	109%
CC1CCN(CC(=O)NC2CCN(C(C)c3ccccc3)CC2)CC1 (centres unmarked) [CBK284017]	101%

Compound	viability at 28.5 h, 10 µM
O=C1C2CCCN2S(=O)(=O)c2ccccc2N1Cc1ccccc1 (centres unmarked) [CBK284018]	88.6%
Cn1c(=O)n(CC(=O)OCc2ccccc2)c2cccnc21 [CBK284019]	91.1%
CCCNC(=O)Cn1nc(C)n2c(cc3sccc32)c1=O [CBK284020]	102%
Cc1nn(CC(=O)NC(C)(C)C)c(=O)c2cc3sccc3n12 [CBK284021]	80.9%
Cc1nn(CC(=O)N2CCCC2)c(=O)c2cc3sccc3n12 [CBK284024]	95.2%
Cc1nn(CC(=O)NC(C)C)c(=O)c2cc3ccsc3n12 [CBK284027]	83.9%
CCc1nn(CC(=O)N2CCCC2)c(=O)c2cc3sccc3n12 [CBK284028]	85.8%
CCCNC(=O)Cn1nc(CC)n2c(cc3sccc32)c1=O [CBK284030]	89.3%
CC1CC(C)CN(C(=O)CN2C3CCC2CC(O)(c2ccco2)C3)C1 (centres unmarked) [CBK284032]	92.5%
O=C(Cc1ccc(F)cc1)N1C2CCC1CC(O)(c1ccco1)C2 (centres unmarked) [CBK284033]	86.4%
CC1CCC(NC(=O)CN2C3CCC2CC(O)(c2ccco2)C3)CC1 (centres unmarked) [CBK284036]	91%
O=C(C1CC1)N1CCC(Cn2nc(-c3cccs3)ccc2=O)CC1 [CBK284039]	101%
O=C(CN1C2CCC1CC(O)(c1ccco1)C2)N1CCCC1 (centres unmarked) [CBK284042]	88.7%
CC1CCCC(C)N1C(=O)CN1C2CCC1CC(O)(c1ccco1)C2 (centres unmarked) [CBK284043]	85.4%
CCN(CC)C(=O)Cn1nc(C)n2c(cc3sccc32)c1=O [CBK284044]	88.7%
Cc1nn(CC(=O)NC2CC2)c(=O)c2cc3sccc3n12 [CBK284047]	94.9%
Cc1nn(CC(=O)NC(C)C)c(=O)c2cc3sccc3n12 [CBK284048]	104%
Cn1ccnc1C1(O)CC2CCC(C1)N2C(=O)C1CCCC1 (centres unmarked) [CBK284052]	86.4%
CCc1nn(CC(=O)N(CC)CC)c(=O)c2cc3sccc3n12 [CBK284054]	77.8%
CCc1nn(CC(=O)NC(C)(C)C)c(=O)c2cc3sccc3n12 [CBK284056]	73.8%
Cc1nn(CC(=O)OC2CCCCC2)c(=O)c2cc3ccsc3n12 [CBK284058]	82.5%
Cc1nn(Cc2ccc(F)cc2)c(=O)c2cc3sccc3n12 [CBK284059]	72.7%
Cc1nn(CC(=O)N2CCCCCC2)c(=O)c2cc3ccsc3n12 [CBK284060]	84.8%

Compound	viability at 28.5 h, 10 µM
CCCNC(=O)Cn1nc(C)n2c(cc3ccsc32)c1=O [CBK284061]	78.2%
Cc1cc2c(cc3c(=O)n(CC(=O)N4CCCC4)nc(C)n32)s1 [CBK284065]	92.4%
CCCNC(=O)Cn1nc(C)n2c(cc3sc(C)cc32)c1=O [CBK284068]	86.1%
Cc1cc2c(cc3c(=O)n(CC(=O)NC(C)(C)C)nc(C)n32)s1 [CBK284070]	84.1%
Cc1cc2c(cc3c(=O)n(CC(=O)NC4CCCC4)nc(C)n32)s1 [CBK284072]	96.9%
CCc1nn(CC(=O)NC2CCCC2)c(=O)c2cc3sccc3n12 [CBK284077]	84%
CCOC(=O)C(C)n1nc(C)n2c(cc3ccsc32)c1=O (centres unmarked) [CBK284079]	96.2%
Cc1nn(CC(=O)NC2CCCCC2)c(=O)c2cc3ccsc3n12 [CBK284080]	94.9%
Cc1nn(CC(=O)N2CCC(C)CC2)c(=O)c2cc3ccsc3n12 [CBK284081]	91.3%
Cn1ccnc1C1(O)CC2CCC(C1)N2C(=O)c1ccccc1F (centres unmarked) [CBK284085]	87.4%
Cn1ccnc1C1(O)CC2CCC(C1)N2C(=O)c1cccc(F)c1 (centres unmarked) [CBK284089]	93.9%
Cn1ccnc1C1(O)CC2CCC(C1)N2C(=O)c1ccccc1Cl (centres unmarked) [CBK284090]	99%
Cn1ccnc1C1(O)CC2CCC(C1)N2C(=O)c1cccc(Cl)c1 (centres unmarked) [CBK284091]	86%
Cn1ccnc1C1(O)CC2CCC(C1)N2C(=O)c1c(F)cccc1F (centres unmarked) [CBK284092]	88.7%
O=C(CN1C2CCC1CC(O)(c1ccco1)C2)N1CCCCC1 (centres unmarked) [CBK284093]	90.3%
CCN(CC)C(=O)CN1C2CCC1CC(O)(c1ccco1)C2 (centres unmarked) [CBK284094]	106%
Cc1cc2c(cc3c(=O)n(CC(=O)NCC4CC4)nc(C)n32)s1 [CBK284097]	96.6%
CCc1nn(CCN2CCCC2)c(=O)c2cc3sc(C)cc3n12 [CBK284098]	88.5%
CCc1nn(CC(=O)NC2CC2)c(=O)c2cc3sc(C)cc3n12 [CBK284099]	91.9%
CCc1nn(CC(=O)NCC2CC2)c(=O)c2cc3sc(C)cc3n12 [CBK284100]	85.7%
CCN(CC)C(=O)Cn1nc(C)n2c(cc3ccsc32)c1=O [CBK284104]	97.3%
O=C(CN1C2CCC1CC(O)(c1ccco1)C2)NCc1ccccc1 (centres unmarked) [CBK284105]	94.5%
O=C(CN1C2CCC1CC(O)(c1ccco1)C2)Nc1ccccc1F (centres unmarked) [CBK284109]	96.7%

Compound	viability at 28.5 h, 10 µM
CC(C(=O)N1C2CCC1CC(O)(c1ccco1)C2)c1ccccc1 (centres unmarked) [CBK284112]	97.8%
CCc1nn(Cc2ccccn2)c(=O)c2cc3sc(C)cc3n12 [CBK284113]	77%
CC(C)C(=O)N1CCC(Cn2nc(-c3ccccc3)ccc2=O)CC1 [CBK284114]	83.1%
CCc1nn(CC(=O)N2CCCC2)c(=O)c2cc3ccsc3n12 [CBK284120]	84.2%
CCc1nn(CC(=O)N2CCCC2)c(=O)c2cc3sc(C)cc3n12 [CBK284122]	82.9%
CCOC(=O)C(C)n1nc(CC)n2c(cc3sc(C)cc32)c1=O (centres unmarked) [CBK284123]	86%
CCc1nn(CC(=O)NC(C)(C)C)c(=O)c2cc3sc(C)cc3n12 [CBK284124]	83.9%
Cc1cc2c(cc3c(=O)n(CCN4CCCC4)nc(C)n32)s1 [CBK284126]	95.5%
CCCNC(=O)Cn1nc(CC)n2c(cc3ccsc32)c1=O [CBK284130]	91.5%
CCc1nn(CC(=O)N(CC)CC)c(=O)c2cc3ccsc3n12 [CBK284132]	88.2%
CCOC(=O)Cn1nc(CC)n2c(cc3ccsc32)c1=O [CBK284133]	83.9%
O=C(c1cscn1)N1C2CCC1CC(O)(c1ccco1)C2 (centres unmarked) [CBK284135]	105%
CCc1nn(CC(=O)NC2CCC2)c(=O)c2cc3ccsc3n12 [CBK284136]	88.9%
Cc1nn2c(C3CCCNC3)ccnc2c1-c1ccc(F)cc1 (centres unmarked) [CBK284139]	78.8%
CCc1nn(Cc2ccncc2)c(=O)c2cc3sc(C)cc3n12 [CBK284140]	85.7%
Cc1nn(CC(=O)N2CCCCC2C)c(=O)c2cc3sccc3n12 (centres unmarked) [CBK284141]	70%
CCc1nn(CC(=O)NC2CCC2)c(=O)c2cc3sc(C)cc3n12 [CBK284142]	92.4%
CCCc1nn(CC(=O)OC)c(=O)c2cc3ccsc3n12 [CBK284144]	98.7%
CCCc1nn(CC(=O)N2CCCC2)c(=O)c2cc3ccsc3n12 [CBK284145]	85.5%
CCCc1nn(CC(=O)NC(C)(C)C)c(=O)c2cc3ccsc3n12 [CBK284148]	83.7%
C=CCn1c2cc(C)sc2c2cnn(CC(=O)NC3CC3)c(=O)c21 [CBK284149]	86.1%
C=CCn1c2cc(C)sc2c2cnn(CC(=O)NC(C)C)c(=O)c21 [CBK284150]	89%
CCn1c2cc(C)sc2c2cnn(CC(=O)NC(C)(C)C)c(=O)c21 [CBK284152]	92.5%
